Results reported in the NIST ThermoML archive (doi:10.1021/je800579j).
Numbers after ± are expanded uncertainties.

Experiment: xn = mol fraction of the nth substance listed
Conditions: Liquid, Pycnometric method

C1COCCO1 [1,4-dioxane] + Cc1ccccc1
mass density [kg/m3]
Conditions	288.15 K	293.15 K	298.15 K	303.15 K	308.15 K	313.15 K	318.15 K
x1 = 0.0688	881.09 ± 0.74	876.32 ± 0.72	871.54 ± 0.73	866.76 ± 0.73	861.99 ± 0.74	857.21 ± 0.74	852.43 ± 0.74
x1 = 0.1373	890.67 ± 0.75	885.84 ± 0.73	881 ± 0.74	876.16 ± 0.74	871.33 ± 0.75	866.49 ± 0.75	861.65 ± 0.75
x1 = 0.2112	901.34 ± 0.76	896.45 ± 0.74	891.55 ± 0.75	886.65 ± 0.75	881.75 ± 0.76	876.85 ± 0.76	871.95 ± 0.75
x1 = 0.2858	912.47 ± 0.78	907.51 ± 0.75	902.55 ± 0.76	897.58 ± 0.76	892.62 ± 0.77	887.66 ± 0.77	882.7 ± 0.77
x1 = 0.3552	923.15 ± 0.79	918.13 ± 0.76	913.11 ± 0.77	908.08 ± 0.78	903.06 ± 0.78	898.04 ± 0.79	893.02 ± 0.78
x1 = 0.4361	936.02 ± 0.8	930.92 ± 0.78	925.82 ± 0.78	920.72 ± 0.79	915.63 ± 0.79	910.54 ± 0.8	905.45 ± 0.79
x1 = 0.5064	947.57 ± 0.81	942.41 ± 0.79	937.25 ± 0.79	932.09 ± 0.8	926.93 ± 0.8	921.77 ± 0.81	916.61 ± 0.8
x1 = 0.5819	960.38 ± 0.82	955.15 ± 0.8	949.92 ± 0.81	944.69 ± 0.81	939.46 ± 0.82	934.23 ± 0.82	929 ± 0.81
x1 = 0.6506	972.39 ± 0.83	967.1 ± 0.81	961.8 ± 0.82	956.5 ± 0.82	951.21 ± 0.82	945.92 ± 0.83	940.63 ± 0.82
x1 = 0.7212	985.11 ± 0.84	979.74 ± 0.82	974.37 ± 0.83	969.01 ± 0.83	963.65 ± 0.84	958.29 ± 0.84	952.93 ± 0.83
x1 = 0.7903	997.93 ± 0.86	992.49 ± 0.83	987.06 ± 0.84	981.63 ± 0.84	976.2 ± 0.85	970.77 ± 0.85	965.34 ± 0.84
x1 = 0.864	1012.02 ± 0.87	1006.51 ± 0.84	1001 ± 0.85	995.5 ± 0.85	989.99 ± 0.86	984.49 ± 0.86	978.99 ± 0.85
x1 = 0.9336	1025.74 ± 0.88	1020.16 ± 0.86	1014.58 ± 0.86	1009.01 ± 0.86	1003.44 ± 0.87	997.87 ± 0.88	992.3 ± 0.86
x1 = 1	1039.23 ± 0.87	1033.59 ± 0.87	1027.95 ± 0.87	1022.32 ± 0.88	1016.68 ± 0.88	1011.05 ± 0.89	1005.42 ± 0.89
